Results: patent US20260193531A1, “LIQUID WEIGHTING AGENTS FOR OIL-BASED FLUIDS” (Albemarle Corporation, priority 2022, published 2026)
Read-outs that look alike come from different tables or passages of the source.

How the values were obtained:
[1] = Density of the esters and ester mixtures; assay type: physicochemical
[2] = Miscibility with a base oil (solid formation or phase separation after one week); assay type: physicochemical; conditions: 50:50 weight mixture with a base oil; for miscibility: room temperature
Description: Some of the liquid weighting agents of this invention are usable as oil-miscible weighting agents (OMWA). As used throughout this document, the term “miscible” means that emulsions and/or separate phases are not observed in a 50:50 weight mixture of one or more of the liquid weighting agents of this invention (total of 50 wt %) and an oil (50 wt %) after the mixture has been kept at 0° C. for one week. Similarly, as used throughout this document, the term “partially miscible” means that emulsions and/or separate phases are not observed in a 50:50 weight mixture of one or more of the liquid weighting agents of this invention (total of 50 wt %) and an oil (50 wt %) after the mixture has been kept at room temperature for one week.
The tribromoneopentyl esters were each combined with a base oil in a 50:50 weight mixture.
Some of the tribromoneopentyl monoesters were tested in pairs in a base oil in a 25:25:50 weight ratio, with 25 wt % of each tribromoneopentyl monoester and 50 wt % of the base oil.
The dibromoallyl esters were each combined with a base oil in a 50:50 weight mixture.
Several mixtures of a monoester containing a terminal alkene moiety were tested in a base oil in a 50:50 weight mixture.
Several mixtures of a tribromoneopentyl monoester and a monoester containing a terminal alkene moiety were tested in a base oil in a 25:25:50 weight ratio, with 25 wt % of the tribromoneopentyl monoester, 25 wt % of 2,3-dibromoprop-2-en-1-yl propanoate, and 50 wt % of the base oil.

[3] = test system: Leptocheirus plumulosus; assay type: in vivo; conditions: for Quantity: estimate
Description: Sediment toxicity testing. Sediment toxicity testing was according to U.S. Environmental Protection Agency Method 1644, the “Method for Conducting a Sediment Toxicity Test with Leptocheirus plumulosus and Non-Aqueous Drilling Fluids or Synthetic-Based Drilling Muds”. The testing procedure was as follows: • 1. Leptocheirus plumulosus amphipods were cultured and maintained in natural sediment at 23±2° C. before being exposed to a test sample. • 2. A sample contained sediment, synthetic seawater, and the substance being tested. Five samples of each substance were prepared and tested, the sample having concentrations of 100, 200, 400, 800, and 1600 mg/kg of the substance to be tested. • 3. For each sample, a 1-liter jar was prepared with approximately 150 mL of formulated sediment with 600 mL of synthetic sea water, and the substance to be tested. • 4. In each test, 20 Leptocheirus plumulosus amphipods were exposed to the sample at 20±1° C. for 10 days in the 1-L closed jar; the Leptocheirus plumulosus amphipods were not fed after the test was initiated. • 5. At the end of 10 days, the Leptocheirus plumulosus amphipods remaining alive were counted and an LC50 value was predicted based on those results.

[4] = Closed-bottle anaerobic biodegradation test, EPA Method 1647 (275 days); conditions: Duration 275 days
Description: Anaerobic biodegradation testing. […] For each substance, four samples were run. Each test was compared to separate standard samples containing ethyl oleate, squalane, 1-hexadecene, C16-18 internal olefin, or no additive. To pass the test, the sample must have more net biodegradation than the C16-18 internal olefin. The testing procedure was as follows: • 1. Each test mixture was prepared by combining with 2000 mg carbon (sample) per kg of natural sediment; 30 grams of the mixture were used for each sample run. The carbon content of the sample was measured before mixing the sample with the sediment. […] After a bottle was capped, a nitrogen sparge was employed to remove air in the headspace of the bottle before incubation was started. • 3. During the incubation period, the sample is kept at a constant temperature of 29±1° C. • 4. […] Each sample was brought to ambient temperature to make each measurement. Gas production was measured with a pressure gauge, and barometric pressure was also measured at the time of measurement to make volume corrections.

[5] = sediment toxicity test, Pass/Fail

| Density [1] | SMILES | also measured |
| --- | --- | --- |
| 1.76 g/mL | CC(=O)OCc1cc(Br)cc(Br)c1 [(3,5-dibromophenyl)methyl acetate] | – |
| 1.79 g/mL | CCC(=O)OCC(Br)=CBr [2,3-dibromoallyl propionate] | solid formation or phase separation ([2]; kept at −18° C. for one week): no solid formation or phase separation was observed; miscibility [2]: miscible |
| 1.70 g/mL | CC(C)C(=O)OCC(Br)=CBr [2,3-dibromoallyl 2-methylpropanoate] | solid formation or phase separation ([2]; kept at −18° C. for one week): no solid formation or phase separation was observed; miscibility [2]: miscible |
| 2.13 g/mL | O=C(CBr)OCC(CBr)(CBr)COC(=O)CBr [2,2-bis(bromomethyl)1,3-propanediol-1,3-bis-(bromoacetate)] | – |
| 1.49 g/mL | CC(C)C(=O)OC/C(Br)=C(\Br)COC(=O)C(C)C [(2E)-2,3-dibromobut-2-ene-1,4-diyl bis(2-methylpropanoate)] | – |
| 1.56 g/mL | CCCCC(=O)OCc1cc(Br)cc(Br)c1 [(3,5-dibromophenyl)methyl pentanoate] | – |
| 1.94 g/mL | CCC(Br)C(=O)OC/C(Br)=C(\Br)COC(=O)C(Br)CC (centres unmarked) [(2E)-2,3-dibromobut-2-ene-1,4-diyl bis(2′-bromobutyrate)] | – |
| 1.74 g/mL | O=C(CBr)OC/C=C\COC(=O)CBr [(2Z)-but-2-ene-1,4-diyl bis(bromoacetate)] | – |
| 1.62 g/mL | CCCC(=O)OCc1cc(Br)cc(Br)c1 [(3,5-dibromophenyl)methyl butyrate] | Amount biodegradation [4]: 25.1% |
| 1.62 g/mL | CCC(=O)OCC(CBr)(CBr)COC(=O)CC [2,2-bis(bromomethyl)1,3-propanediol-1,3-dipropionate] | – |
| 1.95 g/mL | O=C(CBr)OCC(COC(=O)CBr)OC(=O)CBr [propane-1,2,3-triyl tris (bromoacetate)] | – |
| 2.06 g/mL | O=C(CBr)OCc1cc(Br)cc(Br)c1 [(3,5-dibromophenyl)methyl bromoacetate] | – |
| 1.68 g/mL | CCC(=O)OCc1cc(Br)cc(Br)c1 [(3,5-dibromophenyl)methyl propionate] | – |
| 1.62 g/mL | CC(C)C(=O)OCc1cc(Br)cc(Br)c1 [(3,5-dibromophenyl)methyl 2-methylpropanoate] | – |

| SMILES | Density [1] | also measured |
| --- | --- | --- |
| CCC(=O)OCC(CBr)(CBr)CBr [tribromoneopentyl propionate, 3-bromo-2,2-bis(bromomethyl)propyl propionate] | 1.87 g/mL | solid formation or phase separation ([2]; 0° C. for one week): phase separation was observed; solid formation or phase separation ([2]; kept at −18° C. for one week): phase separation was observed |
| CCCCCC(=O)OCC(CBr)(CBr)CBr [tribromoneopentyl hexanoate, 3-bromo-2,2-bis(bromomethyl)propyl hexanoate] | 1.57 g/mL | – |
| CCCCCC(=O)OCC(CBr)(CBr)COC(=O)CCCCC [2,2-bis(bromomethyl)1,3-propanediol-1,3-dihexanoate] | 1.28 g/mL | Result ([3]; in vivo): Pass; Amount biodegradation [4]: 7.36% |
| CCC(=O)OC/C(Br)=C(\Br)COC(=O)CC [(2E)-2,3-dibromobut-2-ene-1,4-diyl bis(propanoate)] | 1.59 g/mL | Result ([3]; in vivo): Pass; Amount biodegradation [4]: 54.64% |
| CCCCC(=O)OCC(CBr)(CBr)CBr [tribromoneopentyl valerate, 3-bromo-2,2-bis(bromomethyl)propyl pentanoate] | 1.72 g/mL | Result [3, 5]: Pass; Quantity ([3]; sediment toxicity test): ~363 mg/kg (estimate) |
| CCCC(=O)OCC(CBr)(CBr)CBr [tribromoneopentyl butyrate, 3-bromo-2,2-bis(bromomethyl)propyl butyrate] | 1.79 g/mL | solid formation or phase separation ([2]; 0° C. for one week): no solid formation or phase separation was observed |
| CC(=O)OCC(Br)=CBr [2,3-dibromoallyl acetate] | 1.83 g/mL | solid formation or phase separation ([2]; 0° C. for one week): no solid formation or phase separation was observed |
| CC(C)CC(=O)OCC(CBr)(CBr)CBr [tribromoneopentyl isovalerate, 3-bromo-2,2-bis(bromomethyl)propyl isovalerate] | 1.73 g/mL | – |
| CC(C)C(=O)OCC(CBr)(CBr)CBr [tribromoneopentyl 2-methylpropanoate, 3-bromo-2,2-bis(bromomethyl)propyl 2-methylpropanoate] | 1.79 g/mL | Result [3, 5]: Fail; Quantity ([3]; sediment toxicity test): ~243 mg/kg (estimate) |
| CC(C)C(=O)OCC(CBr)(CBr)COC(=O)C(C)C [2,2-bis(bromomethyl)1,3-propanediol-1,3-di(2-methylpropanoate)] | 1.46 g/mL | – |
